pIC50: −log10 of the molar value.
How the values were obtained:
KRAS G12D = KRAS G12D (Homo sapiens, UniProt P01116, G12D); test: SOS-catalyzed nucleotide exchange assay, KRAS G12D (Procedure A); assay type: biochemical; conditions: guanine nucleotide exchange (GNE)
Excerpt: (§1) Procedure for SOS-Catalyzed Nucleotide Exchange Assay for KRAS-WT, G12C/D/V, G13D, HRAS, and NRAS (Procedure A)
(§2) Recombinant KRAS-G12C protein used in this assay has an additional triple mutation (C51S/C80L/C118S). Whereas KRAS-WT, G12D/V, G13D, HRAS and NRAS are in context of their WT protein sequence background. Specifically, the SOS-catalyzed nucleotide exchange assay utilizes a preformed TR-FRET complex containing a specific biotinylated RAS protein (KRAS-WT, G12C/V/D, G13D, HRAS, NRAS; described above) with Bodipy-GDP, and Terbium-streptavidin. Compounds are preincubated with this complex for 60 minutes. Subsequently, recombinant human SOS protein and unlabeled GTP are added to initiate the exchange reaction. Small molecule inhibitors stabilize the Bodipy-GDP complex whereas the untreated protein rapidly exchanges Bodipy-GDP for unlabeled GTP resulting in reduced TR-FRET signal.
(§3) To assemble the preformed TR-FRET complexes, each biotinylated RAS protein is diluted to 2 μM in an EDTA Buffer (20 mM HEPES pH 7.5, 50 mM sodium chloride, 10 mM EDTA, and 0.01% Tween) and incubated at room temperature for one hour. This mixture is then further diluted to 90 nM in an Assay Buffer (20 mM HEPES pH 7.5, 150 mM sodium chloride, 10 mM magnesium chloride, and 0.005% Tween) containing 15 nM of Terbium-Streptavidin (Invitrogen, catalog #PV3577) and 900 nM of Bodipy-GDP (Invitrogen, catalog #G22360) and incubated at room temperature for six hours. It should be noted that this preformed TR-FRET complex for each of the RAS protein were made ahead of time, aliquoted and stored at −80° C. until the day of the experiment.
(§4) Each test compound (10 mM stock in DMSO) is diluted in DMSO to make a final-10-point, 3-fold dilution and is acoustically dispensed into a 384-well assay plate (Corning, catalog #3820) using an Echo 550 (Labcyte). Each well of the assay plate receives 3 μL of a specific 3×RAS preformed TR-FRET complex and 3 μL of Assay Buffer and is incubated at room temperature for 60 minutes (preincubation time). Each well then receives 3 μL of 3× recombinant human SOS protein and GTP (Sigma, G8877) in Assay Buffer and is incubated at room temperature for 30 minutes (G13D), 60 minutes (KRAS WT/G12C/D, H/NRAS) or 90 minutes for G12V. The final reaction in each well of 9 μL consists of 3 mM GTP, specific Ras and SOS proteins in the following concentrations: KRAS-G12C/SOS=3 nM/40 nM, KRAS-WT and G12D/SOS=1 nM/40 nM, KRAS-G12V/SOS=1.25 nM/160 nM, KRAS-G13D/SOS=1.25 nM/0 nM, HRAS and NRAS=1.25 nM/40 nM.
(§5) The time-resolved fluorescence resonance energy transfer (TR-FRET) signal is measured on an Envision (PerkinElmer) plate reader: Excitation filter=340 nm; emission1=495 nm; emission2=520 nm; dichroic mirror=D400/D505; delay time=[…]. The signal of each well is determined as the ratio of the emission at 520 nm to that at 495 nm. Percent effect of each well is determined after normalization to control wells containing DMSO (no effect) or a saturating concentration of inhibitor (max effect). The apparent effect as a function of compound concentration is fit to a four-parameter logistic equation.
(§6) For Example No. 14, nucleotide exchange assays for KRAS G12D, WT, G12C, and G12V were performed according to Procedure B. All the other compounds were tested according to Procedure A.

KRAS G12V = KRAS G12V (Homo sapiens, UniProt P01116, G12V); test: SOS-catalyzed nucleotide exchange assay, KRAS G12V (Procedure A); assay type: biochemical; conditions: GNE
Chain of KRAS G12V (P01116 with tags, fused parts or gaps isoform P01116-2 G12V): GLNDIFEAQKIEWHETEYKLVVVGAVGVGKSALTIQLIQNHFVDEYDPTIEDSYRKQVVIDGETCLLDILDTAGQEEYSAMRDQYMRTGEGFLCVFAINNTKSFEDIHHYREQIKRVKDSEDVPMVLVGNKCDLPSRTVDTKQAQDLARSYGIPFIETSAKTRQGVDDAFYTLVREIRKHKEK
Excerpt: as §1, §2, §3, §4, §5, §6

KRAS WT = KRAS WT (Homo sapiens, UniProt P01116); test: SOS-catalyzed nucleotide exchange assay, KRAS WT (Procedure A); assay type: biochemical; conditions: GNE
Chain of KRAS WT (P01116 with tags, fused parts or gaps isoform P01116-2): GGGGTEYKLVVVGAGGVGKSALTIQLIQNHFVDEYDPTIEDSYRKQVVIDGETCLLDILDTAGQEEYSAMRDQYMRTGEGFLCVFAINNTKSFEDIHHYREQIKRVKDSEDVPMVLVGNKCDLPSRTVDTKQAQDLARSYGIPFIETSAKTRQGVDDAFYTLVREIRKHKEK
Excerpt: as §1, §2, §3, §4, §5, §6

AsPC-1 cells = biological target: T1, AsPC-1 cells (Homo sapiens, UniProt P01116, G12D); test: Cellular phospho-ERK assay, AsPC-1 cells (KRAS G12D); assay type: cell-based; conditions: 2 hours, read-out: AsPC1 pERK IC50
T1 construct: p-ERK/total ERK AlphaSureFire read-out
T1 sequence (P01116 1-188 isoform P01116-2 G12D): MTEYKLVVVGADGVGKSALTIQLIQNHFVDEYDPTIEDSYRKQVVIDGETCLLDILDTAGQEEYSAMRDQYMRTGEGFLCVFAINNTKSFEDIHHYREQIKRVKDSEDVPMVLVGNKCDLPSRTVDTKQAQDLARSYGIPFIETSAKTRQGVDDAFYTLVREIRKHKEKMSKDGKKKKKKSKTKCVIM
Method: Procedure for Cellular Phospho-ERK Assay in KRAS Wild Type and Mutant (G12D, G12V) Cell Lines
PANC08.13 cells (ATCC® CRL-2551™), containing homozygous KRAS-G12D activating mutation, were cultured in growth medium made of RPMI1640-GlutaMAX™-I (ThermoFisher Scientific 61870) containing 15% heat inactivated fetal bovine serum (ThermoFisher Scientific 10091148)). AsPC-1 cells (ATCC® CRL-1682™), containing homozygous KRAS-G12D activating mutation, were cultured in T150 flask in growth medium (RPMI medium 1640-GlutaMAX™-I (ThermoFisher Scientific 61870) containing 10% fetal bovine serum (ThermoFisher Scientific 10091148)).
Cells for the assay were harvested in growth medium after TrypLE (ThermoFisher scientific 12604021) digestion and were seeded in a 384-well collagen coated cell culture plate (Corning 356702) at a density of 10,000-15,000 cells/20 μL/well, and incubated at 37° C., 5% CO2 overnight. The compound (with 10 mM stock concentration) dose-response titrations were prepared [30 μM final ERK detection assay concentration and 1:3 dilutions, 10-point dose response] and appropriate amounts (270 nL) of test compounds were dispensed in a 384-well intermediate plate using an Echo 550 liquid handler. 30 μL/well of RPMI medium 1640-GlutaMAX™-I was added to the intermediate plate and the contents of the intermediate plate (10 μL/well) were then transferred to the 384-well collagen coated cell culture plate, which was incubated at 37° C., 5% CO2 for 2 hours. After removal of medium from the collagen coated cell culture plate, cells were lysed in lysis buffer from Alpha SureFire® Ultra™ Multiplex p-ERK and total ERK assay kit (PerkinElmer MPSU-PTERK) containing Halt™ Protease and Phosphatase inhibitor cocktail (ThermoFisher Scientific 78446) at room temperature with constant shaking at 300 rpm for 30 minutes. The cell lysates were then transferred to an OptiPlate-384 plate (PerkinElmer 6005620), and the phosphorylation of ERK (p-ERK) and total ERK levels were detected by Alpha SureFire® Ultra™ Multiplex p-EEK kit and total ERK assay kit (PerkinElmer MPSU-PTERK) following the manufacturer's protocol. Assay plates were read on a EnVision Multimode Plate Reader (PerkinElmer), and the ratio of p-ERK vs. total ERK in each well was used as the final readout. Dose response curves were analyzed using a 4-parameter logistic model to calculate IC50 values using Spotfire software.

Chain of KRAS G12D (P01116 with tags, fused parts or gaps isoform P01116-2 G12D): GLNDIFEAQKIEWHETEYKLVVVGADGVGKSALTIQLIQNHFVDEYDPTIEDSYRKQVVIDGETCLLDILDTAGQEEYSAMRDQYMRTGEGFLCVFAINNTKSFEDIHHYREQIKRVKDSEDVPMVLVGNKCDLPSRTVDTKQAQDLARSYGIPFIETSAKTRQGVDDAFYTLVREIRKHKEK

Row | SMILES | pIC50 (KRAS G12D) | pIC50 (KRAS G12V) | pIC50 (KRAS WT) | pIC50 (AsPC-1 cells)
1 | F[C@H]1CN2CCC[C@@]2(COc2nc(N3C[C@H]4CC[C@@H](C3)N4)c3c(n2)sc2c(-c4c(C5(F)CC5)c(C(F)(F)F)cc5[nH]ncc45)nccc23)C1 [Ex-79, 4-((1R,5S)-3,8-diazabicyclo[3.2.1]octan-3-yl)-8-(5-(1-fluorocyclopropyl)-6-(trifluoromethyl)-1H-indazol-4-yl)-2-(((2R,7aS)-2-fluorotetrahydro-1H-pyrrolizin-7a(5H)-yl)methoxy)pyrido[4′,3′:4,5]thieno[2,3-d]pyrimidine] | 7.91 | 5.35 | 5.32 | 6.21
2 | F[C@H]1CN2CCC[C@@]2(COc2nc(N3C[C@H]4CC[C@@H](C3)N4)c3c(n2)sc2c(-c4c(C5CC5)c(C(F)(F)F)cc5[nH]ncc45)nccc23)C1 [Ex-80, 4-((1R,5S)-3,8-diazabicyclo [3.2.1]octan-3-yl)-8-(5-cyclopropyl-6-(trifluoromethyl)-1H-indazol-4-yl)-2-(((2R,7aS)-2-fluorotetrahydro-1H-pyrrolizin-7a(5H)-yl)methoxy)pyrido [4′,3′:4,5]thieno [2,3-d]pyrimi-dine] | 8.45 | 6.13 | 6.15 | 6.39
3 | Cc1cc2[nH]ncc2c(-c2nccc3c2sc2nc(N4CCCN(C)CC4C)nc(N4C[C@H]5CC[C@@H](C4)N5)c23)c1C(F)(F)F (stereo partly drawn) [Ex-81, 4-((1R,5S)-3,8-diazabicyclo[3.2.1]octan-3-yl)-2-(2,4-dimethyl-1,4-diazepan-1-yl)-8-(6-methyl-5-(trifluoromethyl)-1H-indazol-4-yl)pyrido[4′,3′:4,5]thieno[2,3-d]pyrimidine] | 6.24 | < 4.95 | < 4.95 | 5.17
4 | C#Cc1csc2cc3[nH]ncc3c(-c3nccc4c3sc3nc(OCC5(C#N)CCOCC5)nc(N5C[C@H]6CC[C@@H](C5)N6)c34)c12 [Ex-84, 4-(((4-((1R,5S)-3,8-diazabicyclo[3.2.1]oc-tan-3-yl)-8-(5-ethynyl-1H-thieno[3,2-f]indazol-4-yl)pyrido[4′,3′:4,5]thi-eno[2,3-d]pyrimi-din-2-yl)oxy)methyl)tetrahydro-2H-pyran-4-carbonitrile] | 6.96 | < 4.95 | < 4.95 | 5.53
5 | C#Cc1cc(F)cc2cc3[nH]ncc3c(-c3nccc4c3sc3nc(OC[C@@]56CCCN5C[C@H](F)C6)nc(N5C[C@H]6CC[C@@H](C5)N6)c34)c12 [Ex-86, 4-((1R,5S)-3,8-diazabicyclo[3.2.1]octan-3-yl)-8-(5-ethynyl-7-fluoro-1H-benzo[f]indazol-4-yl)-2-(((2R,7aS)-2-fluorotetrahydro-1H-pyrrolizin-7a(5H)-yl)methoxy)pyrido[4′,3′:4,5]thieno[2,3-d]pyrimidine] | 8.48 | 5.91 | 6.27 | 7.26
6 | CCc1c(F)ccc2cc3[nH]ncc3c(-c3nccc4c3sc3nc(OC[C@@]56CCCN5C[C@H](F)C6)nc(N5C[C@H]6CC[C@@H](C5)N6)c34)c12 [Ex-87, 4-((1R,5S)-3,8-diazabicyclo[3.2.1]octan-3-yl)-8-(5-ethyl-6-fluoro-1H-benzo[f]indazol-4-yl)-2-(((2R,7aS)-2-fluorotetrahydro-1H-pyrrolizin-7a(5H)-yl)methoxy)pyrido[4′,3′:4,5]thieno[2,3-d]pyrimidine] | 8.45 | 6.39 | 6.33 | 7.06
7 | C#Cc1c(F)ccc2cc3[nH]ncc3c(-c3nccc4c3sc3nc(OC[C@@]56CCCN5C[C@H](F)C6)nc(N5C[C@H]6CC[C@@H](C5)N6CCCC#N)c34)c12 [Ex-88, 4-((1R,5S)-3-(8-(5-ethynyl-6-fluoro-1H-benzo[f]indazol-4-yl)-2-(((2R,7aS)-2-fluorotetrahydro-1H-pyrrolizin-7a(5H)-yl)methoxy)pyrido[4′,3′:4,5]thieno[2,3-d]pyrimidin-4-yl)-3,8-diazabicyclo[3.2.1]octan-8-yl)butanenitrile] | 7.00 | 5.75 | 6.13 | 6.43

These reach a higher pIC50 (KRAS G12D). Values come first.

Row | pIC50 (KRAS G12D) | pIC50 (KRAS G12V) | pIC50 (KRAS WT) | pIC50 (AsPC-1 cells) | SMILES
8 | 8.69 | 7.55 | 7.49 | 8.07 | C#Cc1csc2cc3[nH]ncc3c(-c3nccc4c3sc3nc(OC[C@@]56CCCN5C/C(=C\F)C6)nc(N5C[C@H]6CC[C@@H](C5)N6)c34)c12 [Ex-85, 4-((1R,5S)-3,8-diazabicyclo[3.2.1]octan-3-yl)-8-(5-ethynyl-1H-thieno[3,2-f]indazol-4-yl)-2-(((S,Z)-2-(fluoromethylene)tetrahydro-1H-pyrrolizin-7a(5H)-yl)methoxy)pyrido[4′,3′:4,5]thieno[2,3-d]pyrimidine]
9 | 8.71 | 7.79 | 7.90 | 8.20 | C#Cc1c(F)sc2cc3[nH]ncc3c(-c3nccc4c3sc3nc(OC[C@@]56CCCN5C[C@H](F)C6)nc(N5C[C@H]6CC[C@@H](C5)N6)c34)c12 [Ex-82, 4-((1R,5S)-3,8-diazabicyclo[3.2.1]oc-tan-3-yl)-8-(5-ethynyl-6-fluoro-1H-thieno[3,2-f]indazol-4-yl)-2-(((2R,7aS)-2-fluorotetrahydro-1H-pyrrolizin-7a(5H)-yl)methoxy)pyri-do[4′,3′:4,5]thi-eno[2,3-d]pyrimidine]
10 | 8.84 | 6.15 | 6.37 | 7.37 | C#Cc1csc2cc3[nH]ncc3c(-c3nccc4c3sc3nc(OC[C@]5(CN6CC7(C6)CC(F)(F)C7)CC5(F)F)nc(N5C[C@H]6CC[C@@H](C5)N6)c34)c12 [Ex-83, 4-((1R,5S)-3,8-diazabicyclo[3.2.1]octan-3-yl)-2-(((R)-1-((6,6-difluoro-2-azaspiro[3.3]heptan-2-yl)methyl)-2,2-difluorocyclopropyl)methoxy)-8-(5-ethynyl-1H-thieno[3,2-f]indazol-4-yl)pyrido[4′,3′:4,5]thieno[2,3-d]pyrimidine]

Reference: patent publication US20260347372A1, “SMALL MOLECULE INHIBITORS OF KRAS G12D MUTANT” (MERCK SHARP & DOHME LLC, priority 2023, published 2026)
